Reference: patent publication US20220372013A2, “PIPERIDINE-2,6-DIONE DERIVATIVES AND CROHN'S DISEASE TREATING” (Tianjin Hemay Pharmaceutical Sci-Tech Co., Ltd, priority 2016, published 2022)
Marks after values point to notes of the source that are not given here.

How the values were obtained:
[1] = tested on: DNBS-Induced Inflammatory Bowel Disease Models in Rats; assay: Biological Example 2: DNBS-induced inflammatory bowel disease models in rats; assay type: in vivo, Wistar rats
Experimental: 110 male Wistar rats were fasted for 40 hours. A 5% glucose injection (10 mL/Kg) was administered subcutaneously during fasting. 48 rats with normal conditions and moderate body weight were selected from the fasting rats. The animals were randomly divided into […] according to the body weight: normal control group, model control group, sulfasalazine group (300 mg/Kg), dexamethasone group (0.1 mg/Kg), the compound in Example 26 group (30 mg/kg) and the compound in Example 27 group (30 mg/kg), with 8 rats in each group. The animals were anesthetized with isoflurane. A specially made gavage device (made by a rat gavage device having the diameter of 2 mm, which was nested on a mouse gavage device having the diameter of 1 mm) was slowly inserted into the enteric cavity at 8 cm from the anus. The model control group, the compound in Example 26 group and the compound in Example 27 group were administered with 0.5 mL of 50 mg/mL DNBS in 30% ethanol solution. The normal control group was administered with 0.5 mL of 30% ethanol solution. The animals were inverted in anesthesia for 15 minutes after the gavage device was removed. The day when the model was prepared was the first day of the experiment. After 4 hours of DNBS induction, the corresponding drug or the corresponding volume of 1% CMC-Na was administered once per day. On the sixth day of the experiment, the animals were euthanized to observe the results of each index so as to score the colon adhesion degree, measure the length of colon and ulcer area, weigh colon and calculate the colon weight to length ratio.
The compound in Example 26 and Example 27, sulfasalazine and dexamethasone: Preparation Method: Suspended with 1% CMC-Na, and prepared when it was needed.
Levene's Test for homogeneity of data was performed with Spss. Where the data were homogeneous (P>0.05), one-way ANOVA LSD test was performed. Where the analysis of variance was significant (P≤0.05), Dunnett's multiple comparison (parameter method) was performed. Where the results of Levene's Test were significant (P≤0.05), Kruskal-Wallis nonparametric test was performed. Where the results of Kruskal-Wallis nonparametric test were significant (P≤0.05), Mann-Whitney U test was performed for pairwise comparison.

[2] = tested on: DNBS-Induced Inflammatory Bowel Disease Models in Rats; assay: Biological Example 1: DNBS-induced inflammatory bowel disease models in rats; assay type: in vivo, Wistar rats
Experimental: Wistar rats, male, body weight of 100-120 g.
90 male Wistar rats were fasted for 40 hours. A 5% glucose injection was administered subcutaneously during fasting. 60 rats with normal conditions and moderate body weight were selected from the fasting rats. The animals were randomly divided into 6 groups according to the body weight: normal control group, model control group, sulfasalazine group (300 mg/Kg), and the compound in Example 27 groups consisting of 5, 15 and 30 mg/Kg dose groups. There were 10 rats in each group. The animals were anesthetized with ether. A specially made gavage device (made by a rat gavage device having the diameter of 2 mm, which was nested on a mouse gavage device having the diameter of 1 mm) was slowly inserted into the enteric cavity at 8 cm from the anus. The model control group, the sulfasalazine group and the compound in Example 27 groups were administered with 0.5 mL of 50 mg/mL DNBS in 30% ethanol solution. The normal control group was administered with 0.5 mL of 30% ethanol solution. The animals were inverted in anesthesia for 15 minutes after the gavage device was removed. The day when the model was prepared was the first day of the experiment. After 4 hours of DNBS induction, the corresponding drug or the corresponding volume of 1% CMC-Na was administered once per day. The body weights were recorded and the stool characteristics were scored. On the sixth day of the experiment colon tissues were taken from the animals to observe the results of each index.
The compound in Example 27 and sulfasalazine: Preparation Method: Suspended with 1% CMC-Na, and prepared when it was needed.
Animals were euthanized on the sixth day of the experiment to observe the results of each index. After the animals were sacrificed, colons were obtained. The adhesion degree of colon was observed and the length of the colon was measured. The ulcer area was calculated after removing the contents in the colon and the weight of the colon tissue was weighed. The colon tissue was longitudinally divided into two parts. One part of the colon tissue was fixed in 10% formalin solution for later use. The other part of the colon tissue was put into the liquid nitrogen to quickly frozen, and then was reserved at −80° C. for the detection of MPO.
Calculation method for ulcer area: length of ulcer point (cm)×width of ulcer point (cm).
The frozen tissue was ground into powder in liquid nitrogen. An appropriate amount of the powder was weighed and was added into 50 mM potassium phosphate solution (containing 0.5% cetyltrimethylammonium bromide) to give a 25 mg/mL solution. The resultant solution was homogenized by an electric homogenizer. 1 mL of suspension was centrifuged to give a supernatant. 7 μL of the supernatant was added into a 96-well plate and 200 μL of o-dianisidine mixture (containing 0.167 mg/mL o-dianisidine and 0.0006% H2O2 potassium phosphate buffer). OD values of the resultant solution at 0, 30, 60, and 90 s were detected at 450 nm of the microplate reader.
Test for homogeneity of variance was performed with Spss13.0. Where variance of data was homogeneous (P>0.05), one-way ANOVA LSD test was performed. Where the analysis of variance was significant (P<0.05), then Dunnett's multiple comparison (parameter method) or Kruskal-Wallis non-parametric test was performed. Where the results of Kruskal-Wallis non-parametric test were significant (P<0.05), the Mann-Whitney U test was performed for pairwise comparison.

[3] = tested on: Crohn's disease; details: C. Yang et, Aliment Pharmacol Ther 2015; cited from earlier work
[4] = 300 mg/Kg i.g. qd × 6, sixth day, Mean ± SD

In the case of `O=C(O)c1cc(/N=N/c2ccc(S(=O)(=O)Nc3ccccn3)cc2)ccc1O` [Sulfasalazine, sulfasalazine, reference compound], the “Adhesion Degree” value [1, 4] was 0.8 ± 0.7 Points, the “Colon Length” value [1, 4] was 13.2 ± 2.5 cm and the “Colon Weight” value [1, 4] was 1776.1 ± 280.7 mg. The “Ulcer Area” value [1, 4] was 1.6 ± 1.2# cm^2, the “growth rate of the body weight (in words)” value ([1]; fourth day of the experiment, compared with model control group, doses as in Table 7) was “higher than that in the model control group” and the “Adhesion Degree” value [2, 4] was 0.2 ± 0.4 Point. For the same molecule, the “Colon MPO Activity” value [2, 4] was 26.0 ± 14.8 U/mg, the “Colon Weight” value [2, 4] was 1794.9 ± 242.3 mg and the “Colon weight to length ratio” value [2, 4] was 140.6 ± 27.9 mg/cm. For the same molecule, the “Ulcer Area” value [2, 4] was 0.7 ± 0.6 cm^2 and the “reduction of the ulcer area” value ([2]; 300 mg/Kg, vs model control group) was 60%.

For `Nc1cccc2c1CN(C1CCC(=O)NC1=O)C2=O` (stereo not shown) [lenalidomide], the “effectiveness in the treatment of Crohn's disease (in words)” value [3] is listed as “not effective”.

In the case of `O=C1CCC(N2C(=O)c3ccccc3C2=O)C(=O)N1` (stereo not shown) [thalidomide], the “effectiveness in the treatment of Crohn's disease (in words)” value [3] is given as “not effective”.
